# Source: patent publication US11802120B2, “Fused cyclic urea derivatives as CRHR2 antagonist” (RaQualia Pharma Inc., priority 2018, dated 2023)
# Target: T1, human CRHR2-alpha (Homo sapiens, UniProt Q13324)
# T1 sequence (Q13324 1-411): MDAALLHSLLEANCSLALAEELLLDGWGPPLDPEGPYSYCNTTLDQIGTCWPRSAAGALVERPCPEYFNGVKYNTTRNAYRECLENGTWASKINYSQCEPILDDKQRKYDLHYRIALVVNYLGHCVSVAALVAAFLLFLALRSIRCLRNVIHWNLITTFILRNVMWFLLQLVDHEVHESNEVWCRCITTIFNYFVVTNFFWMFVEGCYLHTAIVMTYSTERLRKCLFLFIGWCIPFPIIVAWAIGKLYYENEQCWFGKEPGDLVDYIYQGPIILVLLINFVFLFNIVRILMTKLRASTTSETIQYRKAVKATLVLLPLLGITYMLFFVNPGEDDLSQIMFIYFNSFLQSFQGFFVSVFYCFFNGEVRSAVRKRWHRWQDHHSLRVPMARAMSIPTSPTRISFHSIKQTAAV
# Assay: cAMP functional assay for human CRHR2 (LANCE Ultra cAMP, TR-FRET)
# Type: cell-based
# Settings: CHO-K1 cells expressing human CRHR2-alpha, agonist human urocortin2 at EC80, cAMP; read-out: IC50 against CRHR2
# Procedure, shortened: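 CHO-K1 cells stably expressing each receptor, serum-starved and cryopreserved, were preincubated with compound 30 min at 25° C in HBSS buffer with 0.5 mM IBMX, pH 7.4, then stimulated 30 min with EC80 agonist (urocortin2 for CRHR2, CRF for CRHR1). cAMP read by TR-FRET; IC50 from percent-inhibition curves.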
row,Compound,IC50 [nM]
1,"Cc1ncc(Cl)cc1C(=O)N[C@H]1CC[C@H](Cn2c(=O)n(-c3ccc4[nH]nc(C)c4c3)c3ncccc32)CC1 [Example 212, 5-chloro-2-methyl-N-((1r,4r)-4-((3-(3-methyl-1H-indazol-5-yl)-2-oxo-2,3-dihydro-1H-imidazo[4,5-b]pyridin-1-yl)methyl)cyclohexyl)nicotinamide]",< 300
2,"Cc1ccc(-n2c(=O)n(C[C@H]3CC[C@H](NC(=O)c4cc(Cl)ccc4C)CC3)c3ccccc32)cn1 [Example 267, 5-chloro-2-methyl-N-((1r,4r)-4-((3-(6-methyl-pyridin-3-yl)-2-oxo-2,3-dihydro-1H-benzo[d]imidazol-1-yl)methyl)cyclo-hexyl)benzamide]",< 300
3,"Cc1ncc(Cl)cc1C(=O)N[C@H]1CC[C@H](Cn2c(=O)n(-c3ccc4ocnc4c3)c3ccccc32)CC1 [Example 264, N-((1r,4r)-4-((3-(benzo[d]oxazol-5-yl)-2-oxo-2,3-dihydro-1H-benzo[d]imidazol-1-yl)methyl)cyclo-hexyl)-5-chloro-2-methyl-nicotinamide]",< 300
4,"Cc1ncc(Cl)cc1C(=O)N[C@H]1CC[C@H](Cn2c(=O)n(-c3cccnc3C(F)(F)F)c3ccccc32)CC1 [Example 318, 5-chloro-2-methyl-N-((1r,4r)-4-((2-oxo-3-(2-(trifluoro-methyl)pyridin-3-yl)-2,3-dihydro-1H-benzo[d]imidazol-1-yl)methyl)cyclohexyl) nicotinamide]",< 300
5,"Cc1ncc(Cl)cc1C(=O)N[C@H]1CC[C@H](Cn2c(=O)n(-c3ccc(C(=O)NCc4cocn4)nc3)c3ccccc32)CC1 [Example 179, 5-(3-(((1r,4r)-(5-chloro-2-methylnicotinamido)cyclo-hexyl)methyl)-2-oxo-2,3-dihydro-1H-benzo[d]imidazol-1-yl)-N-(oxazol-4-ylmethyl) picolinamide]",< 300
6,"CNC(=O)c1ccc(-n2c(=O)n(C[C@H]3CC[C@H](NC(=O)c4cc(Cl)cnc4Cl)CC3)c3ccccc32)cn1 [Example 542, 5-(3-(((1r,4r)-4-(2,5-dichloronicotinamido)cyclohexyl)methyl)-2-oxo-2,3-dihydro-1H-benzo[d]imidazol-1-yl)-N-methylpicolinamide]",< 300
7,"O=C(N[C@H]1CC[C@H](Cn2c(=O)n(-c3cnc4[nH]ccc4c3)c3ccccc32)CC1)c1cc(Cl)cnc1C(F)F [Example 455, 5-chloro-2-(difluoromethyl)-N-((1r,4r)-4-((2-oxo-3-(1H-pyrrolo[2,3-b]pyridin-5-yl)-2,3-dihydro-1H-benzo[d]imidazol-1-yl)methyl)cyclo-hexyl)nicotinamide]",< 300
8,"N#Cc1ncccc1-n1c(=O)n(C[C@H]2CC[C@H](NC(=O)c3cc(Cl)cnc3C(F)F)CC2)c2ccccc21 [Example 368, 5-chloro-N-((1r,4r)-4-((3-(2-cyanopyridin-3-yl)-2-oxo-2,3-dihydro-1H-benzo[d]imidazol-1-yl)methyl)cyclo-hexyl)-2-(difluoromethyl) nicotinamide]",< 300
9,"O=C(N[C@H]1CC[C@H](Cn2c(=O)n(-c3ccc(OCCO)nc3)c3ccc(F)cc32)CC1)c1cc(Cl)cnc1C(F)F [Example 712, 5-chloro-2-(difluoromethyl)-N-((1r,4r)-4-((6-fluoro-3-(6-(2-hydroxyethoxy)pyridin-3-yl)-2-oxo-2,3-dihydro-1H-benzo[d]imidazol-1-yl)methyl)cyclohexyl)nicotinamide]",< 300
10,"CC(=O)Nc1ccc(-n2c(=O)n(C[C@H]3CC[C@H](NC(=O)c4cc(Cl)cnc4C(F)F)CC3)c3ccccc32)cn1 [Example 508, N-((1r,4r)-4-((3-(6-aceta-midopyridin-3-yl)-2-oxo-2,3-dihydro-1H-benzo[d]imidazol-1-yl)methyl)cyclo-hexyl)-5-chloro-2-(difluoro-methyl)nicotinamide]",< 300
11,"Cn1ncc2c(-n3c(=O)n(C[C@H]4CC[C@H](NC(=O)c5cc(Cl)cnc5C(F)F)CC4)c4ccccc43)cccc21 [Example 374, 5-chloro-2-(difluoromethyl)-N-((1r,4r)-4-((3-(1-methyl-1H-indazol-4-yl)-2-oxo-2,3-dihydro-1H-benzo[d]imidazol-1-yl)methyl)cyclohexyl) nicotinamide]",< 300
12,"Cc1ncc(Cl)cc1C(=O)N[C@H]1CC[C@H](Cn2c(=O)n(-c3ccc(OC[C@@H](C)O)nc3)c3ccccc32)CC1 [Example 438, 5-chloro-N-((1R,4r)-4-((3-(6-((R)-2-hydroxypropoxy)pyridin-3-yl)-2-oxo-2,3-dihydro-1H-benzo[d]imidazol-1-yl)methyl)cyclohexyl)-2-methylnicotinamide]",< 300
13,"O=C(N[C@H]1CC[C@H](Cn2c(=O)n(-c3cncc(-c4ncco4)c3)c3ccccc32)CC1)c1cc(Cl)cnc1C(F)F [Example 688, 5-chloro-2-(difluoromethyl)-N-((1r,4r)-4-((3-(5-(oxazol-2-yl)pyridin-3-yl)-2-oxo-2,3-dihydro-1H-benzo[d]imidazol-1-yl)methyl)cyclohexyl) nicotinamide]",< 300

# Next, values leading:
row,IC50 [nM],Compound
1,< 300,"Cc1ncc(Cl)cc1C(=O)N[C@H]1CC[C@H](Cn2c(=O)n(-c3ccc(-n4cccn4)nc3)c3ccccc32)CC1 [Example 637, N-((1r,4r)-4-((3-(6-(1H-pyrazol-1-yl)pyridin-3-yl)-2-oxo-2,3-dihydro-1H-benzo[d]imidazol-1-yl)methyl)cyclohexyl)-5-chloro-2-methylnicotinamide]"
2,< 300,"Cc1ncc(Cl)cc1C(=O)N[C@H]1CC[C@H](Cn2c(=O)n(-c3ccc4c(c3)nc(C)n4C)c3ccccc32)CC1 [Example 168, 5-chloro-N-((1r,4r)-4-((1′,2′-dimethyl-2-oxo-1′H-[1,5′-bibenzo[d]imidazol]-3(2H)-yl)methyl)cyclohexyl)-2-methylnicotinamide]"
3,< 300,"Cc1ccc(-n2c(=O)n(C[C@H]3CC[C@H](NC(=O)c4cc(Cl)cnc4C(F)(F)F)CC3)c3cccc(C)c32)cn1 [Example 302, 5-chloro-N-((1r,4r)-4-((4-methyl-3-(6-methylpyridin-3-yl)-2-oxo-2,3-dihydro-1H-benzo[d]imidazol-1-yl)methyl)cyclohexyl)-2-(trifluoromethyl)nicotinamide]"
4,< 300,"CCn1cc2cc(-n3c(=O)n(C[C@H]4CC[C@H](NC(=O)c5cc(Cl)cnc5C)CC4)c4ccccc43)cnc2n1 [Example 254, 5-chloro-N-((1r,4r)-4-((3-(2-ethyl-2H-pyrazolo[3,4-b]pyridin-5-yl)-2-oxo-2,3-dihydro-1H-benzo[d]imidazol-1-yl)methyl)cyclohexyl)-2-methylnicotinamide]"
5,< 300,"N#Cc1ccccc1-n1c(=O)n(C[C@H]2CC[C@H](NC(=O)c3cc(Cl)cnc3C(F)F)CC2)c2ccccc21 [Example 499, 5-chloro-N-((1r,4r)-4-((3-(2-cyanophenyl)-2-oxo-2,3-dihydro-1H-benzo[d]imidazol-1-yl)methyl)cyclo-hexyl)-2-(difluoromethyl) nicotinamide]"
6,< 300,"Cn1cnc2cc(-n3c(=O)n(C[C@H]4CC[C@H](NC(=O)c5cc(Cl)cnc5C(F)F)CC4)c4ccccc43)ccc21 [Example 386, 5-chloro-2-(difluoromethyl)-N-((1r,4r)-4-((1′-methyl-2-oxo-1′H-[1,5′-bibenzo[d]imidazol]-3(2H)-yl)methyl)cyclohexyl)nicotinamide]"
7,< 300,"Cc1cnccc1-n1c(=O)n(C[C@H]2CC[C@H](NC(=O)c3cc(Cl)cnc3C(F)(F)F)CC2)c2ccccc21 [Example 289, 5-chloro-N-((1r,4r)-4-((3-(3-methylpyridin-4-yl)-2-oxo-2,3-dihydro-1H-benzo[d]imidazol-1-yl)methyl)cyclo-hexyl)-2-(trifluoromethyl) nicotinamide]"
8,< 300,"O=C(N[C@H]1CC[C@H](Cn2c(=O)n(-c3ccccc3Cl)c3ncccc32)CC1)c1cc(Cl)cnc1C(F)F [Example 366, 5-chloro-N-((1r,4r)-4-((3-(2-chlorophenyl)-2-oxo-2,3-dihydro-1H-imidazo[4,5-b]pyridin-1-yl)methyl)cyclo-hexyl)-2-(difluoromethyl) nicotinamide]"
9,< 300,"Cc1ncc(Cl)cc1C(=O)N[C@H]1CC[C@H](Cn2c(=O)n(-c3ccc(C(=O)Nc4ccccn4)nc3)c3ccccc32)CC1 [Example 174, 5-(3-(((1r,4r)-4-(5-chloro-2-methylnicotinamido)cyclo-hexyl)methyl)-2-oxo-2,3-dihydro-1H-benzo[d]imidazol-1-yl)-N-(pyridin-2-yl) picolinamide]"
10,< 300,"O=C(N[C@H]1CC[C@H](Cn2c(=O)n(-c3ccccc3Cl)c3ccncc32)CC1)c1cc(Cl)cnc1C(F)F [Example 367, 5-chloro-N-((1r,4r)-4-((1-(2-chlorophenyl)-2-oxo-1H-imidazo[4,5-c]pyridin-3(2H)-yl)methyl)cyclohexyl)-2-(difluoromethyl)nicotinamide]"
11,< 300,"Cc1ncc(Cl)cc1C(=O)N[C@H]1CC[C@H](Cn2c(=O)n(-c3ccc(C(=O)Nc4ccn(C)n4)nc3)c3ccccc32)CC1 [Example 173, 5-(3-(((1r,4r)-4-(5-chloro-2-methylnicotinamido)cyclohexyl)methyl)-2-oxo-2,3-dihydro-1H-benzo[d]imidazol-1-yl)-N-(1-methyl-1H-pyrazol-3-yl)picolinamide]"
